The record followed here is patent US20250326772A1, “MRGPRX2 ANTAGONISTS, PHARMACEUTICAL COMPOSITION INCLUDING MRGPRX2 ANTAGONIST, AND METHOD OF TREATING MRGPRX2-MEDIATED DISEASE OR DISORDER” (KYORIN PHARMACEUTICAL CO., LTD., priority 2024, published 2025).

As a reminder, the IC50 is the midpoint of a concentration-inhibition curve. A high value points to lower potency.

Each structure is given as a SMILES string.

In the first test the target is T1, MRGPRX2 (Homo sapiens, UniProt Q96LB1).
T1 sequence (Q96LB1 1-330): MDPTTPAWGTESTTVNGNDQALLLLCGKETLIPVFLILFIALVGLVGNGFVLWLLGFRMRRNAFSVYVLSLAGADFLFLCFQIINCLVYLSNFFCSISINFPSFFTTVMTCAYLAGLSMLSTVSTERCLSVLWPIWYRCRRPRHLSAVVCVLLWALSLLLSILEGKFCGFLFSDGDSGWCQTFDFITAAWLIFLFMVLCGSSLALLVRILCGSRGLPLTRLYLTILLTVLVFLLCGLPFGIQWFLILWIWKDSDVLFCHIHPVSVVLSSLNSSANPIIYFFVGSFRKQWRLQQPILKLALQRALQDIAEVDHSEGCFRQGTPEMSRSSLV
Briefly: MRGPRX2 reporter cell assay (NFAT-RE luciferase, Substance P stimulation). The test is classed as cell-based. The note with it: U2OS cells stably transfected with MRGPRX2 and NFAT-RE luciferase reporter; Substance P at EC80. An outline of the steps:
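U2OS cells stably expressing MRGPRX2 and an NFAT-RE luc2P reporter, pre-incubated 30 min at 37° C with compound (0.5% DMSO), then stimulated with Substance P at EC80 for 6 h. Luminescence after ONE-GLO; percent inhibition fitted by four-parameter logistic to IC50.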
Consider `Cn1cc(-c2c(-c3c(C(F)F)nn4c3OC[C@@H](O)C4)[nH]c3ncccc23)c(OC(F)F)n1` [EX. 527, (S)-3-(3-(3-(difluoromethoxy)-1-methyl-1H-pyrazol-4-yl)-1H-pyrrolo[2,3-b]pyridin-2-yl)-2-(difluoromethyl)-6,7-dihydro-5H-pyrazolo[5,1-b] [1,3]oxazin-6-ol], for which the IC50 was determined as 0.0044 µM.

For `Cn1cc(-c2c(-c3c(C(F)F)nn4c3OC[C@@H](OCCO)C4)[nH]c3ncccc23)c(OC(F)F)n1` [EX. 534], the IC50 was found to be 0.0021 µM.

The test is the same for the next values; noted with them: U2OS cells stably transfected with MRGPRX2 and NFAT-RE luciferase reporter; Substance P at EC80; class symbols.
`[2H]C([2H])([2H])Oc1ccc(C#N)c(-c2c(-c3cn(C)nc3C(F)F)[nH]c3ncccc23)c1` [EX. 381] registered an IC50 of less than 0.01 µM.

For `Cn1cc(-c2c(-c3c(C(F)F)nn4c3OC[C@@H](NC(=O)[C@H]3C[C@H]3F)C4)[nH]c3ncccc23)c(OC(F)F)n1` (atropisomer, axis not shown) [EX. 548], the half-inhibitory concentration (IC50) was less than 0.01 µM.

As for `COc1nn2cccnc2c1-c1[nH]c2ncccc2c1-c1ccccc1C#N` [EX. 141], the IC50 is less than 0.01 µM.

`N#Cc1ccccc1-c1c(-c2c[nH]nc2C(F)F)[nH]c2ncccc12` [EX. 71] gave an IC50 of less than 0.01 µM.

`C[C@@H](O)COC(=O)N[C@@H]1COc2c(-c3[nH]c4ncccc4c3-c3cn(C)nc3OC(F)F)c(C(F)F)nn2C1` [EX. 568] registered a concentration for half-maximal inhibition (IC50) of less than 0.01 µM.

Turning to `FC(F)c1nn2c(c1-c1[nH]c3ncccc3c1C1=CCCCC1)OCCC2` [EX. 430], the IC50 is less than 0.01 µM.

`Cc1cc(-c2c(-c3c(C)nn4c3OC[C@@H](O)C4)[nH]c3ncccc23)c(C#N)s1` [EX. 459] returned a half-inhibitory concentration (IC50) of less than 0.01 µM.

In turn, `CS(=O)(=O)N[C@@H]1COc2c(-c3[nH]c4ncccc4c3-c3cccnc3OC(F)F)c(C3CC3)nn2C1` [EX. 456] came in with a concentration for half-maximal inhibition (IC50) of less than 0.01 µM.

Consider `[2H]C([2H])([2H])Oc1ccc(C#N)c(-c2c(-c3c(C)nn4c3OCCC4C)[nH]c3ncccc23)c1` (stereo not drawn) [EX. 170], for which the IC50 is less than 0.01 µM.

Turning to `C[C@@H](O)CC(=O)N[C@@H]1COc2c(-c3[nH]c4ncccc4c3-c3cn(C)nc3OC(F)F)c(C(F)F)nn2C1` [EX. 555], the IC50 is less than 0.01 µM.

`N#Cc1ncccc1-c1c(-c2c(C(F)F)nn3c2OC[C@@H](F)C3)[nH]c2ncccc12` [EX. 424]: the IC50 is less than 0.01 µM.

`CCOC(=O)N[C@@H]1COc2c(-c3[nH]c4ncccc4c3-c3cn(C)nc3OC(F)F)c(C(F)F)nn2C1` [EX. 573] came in with a concentration for half-maximal inhibition (IC50) of less than 0.01 µM.

Compound `O[C@@H]1COc2c(-c3[nH]c4ncccc4c3-c3cccnc3OC(F)F)c(C(F)F)nn2C1` [EX. 454] showed a half-inhibitory concentration (IC50) of less than 0.01 µM.

Turning to `Cn1cc(-c2c(-c3c(C(F)F)nn4c3OC[C@@H](O)C4)[nH]c3ncccc23)c(OC(F)F)n1` [EX. 527, (S)-3-(3-(3-(difluoromethoxy)-1-methyl-1H-pyrazol-4-yl)-1H-pyrrolo[2,3-b]pyridin-2-yl)-2-(difluoromethyl)-6,7-dihydro-5H-pyrazolo[5,1-b] [1,3]oxazin-6-ol], the concentration for half-maximal inhibition (IC50) was less than 0.01 µM.

`Cc1ccnc2[nH]c(-c3c[nH]nc3C(F)(F)F)c(-c3ccccc3C#N)c12` [EX. 78] came in with an IC50 of less than 0.01 µM.

Compound `Cn1cc(-c2c(-c3c(C(F)F)nn4c3OC[C@@H](NC(=O)C3(O)CC3)C4)[nH]c3ncccc23)c(OC(F)F)n1` [EX. 589] came in with a half-maximal inhibitory concentration (IC50) of less than 0.01 µM.

For `Cn1cc(-c2c(-c3c(C(F)F)nn4c3OC[C@@H](NC(=O)[C@H]3C[C@H](O)C3)C4)[nH]c3ncccc23)c(OC(F)F)n1` [EX. 565], the half-maximal inhibitory concentration (IC50) is less than 0.01 µM.

For the compound `Cn1cc(-c2c(-c3c(C4CC4)nn4c3OC[C@@H](NS(C)(=O)=O)C4)[nH]c3ncccc23)c(OC(F)F)n1` [EX. 484], the IC50 is less than 0.01 µM.

Take `[2H]C([2H])([2H])Oc1ccc(C#N)c(-c2c(-c3c(CC)nn4c3OCCC4)[nH]c3ncccc23)c1` [EX. 200]: the IC50 was less than 0.01 µM.

Consider `Cn1cc(-c2c(-c3c(C(F)F)nn4c3OC[C@@H](NC(=O)[C@H]3C[C@@H]3F)C4)[nH]c3ncccc23)c(OC(F)F)n1` [EX. 550], for which the concentration for half-maximal inhibition (IC50) was less than 0.01 µM.

`FC(F)Oc1n[nH]cc1-c1c(-c2c(C(F)F)nn3c2OCCC3)[nH]c2ncccc12` [EX. 406] yielded a half-inhibitory concentration (IC50) of 0.1 to 1 µM.

Compound `N#Cc1ccccc1-c1c(-c2c(C(F)F)nn3c2OC[C@H](O)C3)[nH]c2ncccc12` [EX. 371] displayed a half-inhibitory concentration (IC50) of less than 0.01 µM.

Consider `Cn1cc(-c2c(-c3c(C(F)F)nn4c3OC[C@@H](NC(=O)CC(C)(C)O)C4)[nH]c3ncccc23)c(OC(F)F)n1` [EX. 586, (S)—N-(3-(3-(3-(difluoromethoxy)-1-methyl-1H-pyrazol-4-yl)-1H-pyrrolo[2,3-b]pyridin-2-yl)-2-(difluoromethyl)-6,7-dihydro-5H-pyrazolo[5,1-b] [1,3]oxazin-6-yl)-3-hydroxy-3-methylbutanamide], for which the 50% inhibitory concentration (IC50) was less than 0.01 µM.

For the compound `COC(=O)N[C@@H]1COc2c(-c3[nH]c4ncccc4c3-c3cc(C)sc3C#N)c(C(F)F)nn2C1` [EX. 516], the half-maximal inhibitory concentration (IC50) is less than 0.01 µM.

Compound `[2H]C([2H])([2H])Oc1ccc(C#N)c(-c2c(-c3c(C)nn4c3NCC4)[nH]c3ncccc23)c1` [EX. 168] had an IC50 of less than 0.01 µM.

With `COc1ccccc1-c1[nH]c2ncccc2c1-c1cc(C)ccc1F` [EX. 314], the IC50 is less than 0.01 µM.

The compound `COc1ccc(F)cc1-c1[nH]c2ncccc2c1C1=CCCCC1` [EX. 301, 3-(cyclohex-1-en-1-yl)-2-(5-fluoro-2-methoxyphenyl)-1H-pyrrolo[2,3-b]pyridine] had an IC50 of 0.1 to 1 µM.

In turn, `CNC(=O)O[C@@H]1COc2c(-c3[nH]c4ncccc4c3-c3cn(C)nc3OC(F)F)c(C(F)F)nn2C1` [EX. 540] returned an IC50 of less than 0.01 µM.

`C[C@H](O)CC(=O)N[C@@H]1COc2c(-c3[nH]c4ncccc4c3-c3cn(C)nc3OC(F)F)c(C(F)F)nn2C1` [EX. 556]: the IC50 was less than 0.01 µM.

In turn, `C[C@@]1(O)COc2c(-c3[nH]c4ncccc4c3-c3cccnc3OC(F)F)c(C3CC3)nn2C1` [EX. 440] registered a half-maximal inhibitory concentration (IC50) of less than 0.01 µM.

Compound `O[C@@H]1COc2c(-c3[nH]c4ncccc4c3-c3cccc(F)c3OC(F)F)c(C(F)F)nn2C1` [EX. 466] had a concentration for half-maximal inhibition (IC50) of less than 0.01 µM.

`COc1ccc(C#N)c(-c2c(-c3c(C)nn4c3OCC(NC(=O)OC(C)(C)C)C4)[nH]c3ncccc23)c1` (stereo not drawn) [EX. 256] gave a 50% inhibitory concentration (IC50) of less than 0.01 µM.

As to `Cc1cc(-c2c(-c3c(C(F)F)nn4c3OC[C@@H](F)C4)[nH]c3ncccc23)c(Cl)s1` [EX. 436], the half-maximal inhibitory concentration (IC50) is less than 0.01 µM.

In turn, `CO[C@]1(C)COc2c(-c3[nH]c4ncccc4c3-c3cc(C)sc3C#N)c(C(F)F)nn2C1` [EX. 486, (S)-3-(2-(2-(difluoromethyl)-6-methoxy-6-methyl-6,7-dihydro-5H-pyrazolo[5,1-b] [1,3]oxazin-3-yl)-1H-pyrrolo[2,3-b]pyridin-3-yl)-5-methylthiophene-2-carbonitrile] gave a 50% inhibitory concentration (IC50) of less than 0.01 µM.

For `CN[C@@H]1COc2c(-c3[nH]c4ncccc4c3-c3cn(C)nc3OC(F)F)c(C(F)F)nn2C1` [EX. 582, (S)-3-(3-(3-(difluoromethoxy)-1-methyl-1H-pyrazol-4-yl)-1H-pyrrolo[2,3-b]pyridin-2-yl)-2-(difluoromethyl)-N-methyl-6,7-dihydro-5H-pyrazolo[5,1-b] [1,3]oxazin-6-amine], the IC50 was less than 0.01 µM.

The compound `COc1ccc(C#N)c(-c2c(-c3c[nH]nc3C(F)(F)F)[nH]c3ncccc23)c1` [EX. 80] registered an IC50 of less than 0.01 µM.

Consider `Cn1cc(-c2c(-c3c(C(F)F)nn4c3OC[C@@H](O)C4)[nH]c3ncsc23)c(OC(F)F)n1` [EX. 427, (S)-3-(6-(3-(difluoromethoxy)-1-methyl-1H-pyrazol-4-yl)-4H-pyrrolo[2,3-d]thiazol-5-yl)-2-(difluoromethyl)-6,7-dihydro-5H-pyrazolo[5,1-b] [1,3]oxazin-6-ol], for which the IC50 is less than 0.01 µM.

In turn, `COc1ccc(C#N)c(-c2c(-c3c(C)nn4c3OCCC4)[nH]c3ncccc23)c1` [EX. 227] registered a 50% inhibitory concentration (IC50) of less than 0.01 µM.

`Cn1cc(-c2c(-c3c(C(F)F)nn4c3OC[C@@H](OCCO)C4)[nH]c3ncccc23)c(OC(F)F)n1` [EX. 534] came in with an IC50 of less than 0.01 µM.

On to `Cn1cc(-c2c(-c3c(C(F)F)nn4c3OC[C@@H](N)C4)[nH]c3ncccc23)c(OC(F)F)n1` [EX. 543], for which the IC50 is less than 0.01 µM.

`Cn1cc(-c2c(-c3c(C(F)F)nn4c3OC[C@@H](NC(=O)[C@H]3C[C@@](C)(O)C3)C4)[nH]c3ncccc23)c(OC(F)F)n1` [EX. 563]: the IC50 is less than 0.01 µM.

In turn, `Cn1cc(-c2c(-c3c(C(F)F)nn4c3OC[C@@H](F)C4)[nH]c3ncccc23)c(OC(F)F)n1` [EX. 434] registered an IC50 of less than 0.01 µM.

In the next test the test system is humanized mice (NOG-hGM-CSF/hIL-3 Tg mice). Put plainly: Evans blue vascular permeability assay ((R)-Zinc3573-induced, ear). The test is classed as in vivo. The note with it: 10 mg/kg orally, 30 min before intradermal (R)-Zinc3573 3 μM into the ear; Evans blue dye; mean and standard error of mean. The method, then: Experimental Example 2: Evans Blue Vascular Permeability Assay
Twenty-five to twenty-six-week-old humanized mice (NOG-hGM-CSF/hIL-3 Tg mice at 17-18 weeks after transplantation of human umbilical cord blood-derived CD34+ cells; Central Institute for Experimental Animals) were anesthetized with isoflurane and injected intravenously with 200 μL of 0.5% Evans blue (cat. no. 056-04061; FUJIFILM Wako Pure Chemical Corporation). Subsequently, vehicle (0.5w/v % Methyl Cellulose) or 10 mg/kg of EX.381 were orally administered. After 30 minutes, animals were anesthetized with isoflurane and injected intradermally with 10 μL of (R)-Zinc3573 ((R)-Zinc; 3 μM, cat. no. SML1699; Sigma-Aldrich) into the right ear or with saline (0.1% DMSO) into the left ear as a control. Fifteen minutes after intradermal injection, animals were sacrificed and the ears were collected in 1.5 mL tubes. Evans blue dye was extracted from the tissue by adding 150 μL of N, N-dimethyl formamide (cat. no. 04096-34; nacalai tesque) for 12 hours at 55° C. […] The plate was read at 620 nm and 740 nm on a plate reader and the Evans blue dye concentration in each sample was determined by a standard curve using corrected absorbance (corrected absorbance=A620-A740). […] Data is expressed as mean and standard error of mean. […]
For `[2H]C([2H])([2H])Oc1ccc(C#N)c(-c2c(-c3cn(C)nc3C(F)F)[nH]c3ncccc23)c1` [EX. 381], the Inhibition % is 76.1 ± 12.1%.
